These are literature values, as cited in US6622729B1, “Selective photodynamic treatment” (priority 1999, dated 2003).

The conditions of the series: SnET2 administered in 0.5 and 1 mg/kg doses.

In the case of `CCOC(=O)C1=Cc2c3nc(cc4nc(cc5[n-]c(cc6[n-]c2c(C)c6CC)c(C)c5CC)C(C)=C4CC)[C@@H](C)[C@]13CC.[Cl-].[Cl-].[Sn]` (racemic) [SnET2, tin ethyl etiopurpurin], the systemic toxicity result is given as “no apparent systemic toxicity”.
